# Assays:
# OSCCs [1] = assay: Cell count of viable cells (Trypan Blue, light microscope); assay type: cell-based, human; settings: WIN 55,212-2 10-100 μM, 24 hours
# Description: The number of viable cells was counted under light microscope using Trypan Blue staining. Compiled data from three independent experiments performed as shown.
# (§1) The number of viable cells was counted under light microscope using Trypan Blue staining (Sigma, MO, USA).
# MP2 tumor cells [2] = assay: as above; assay type: cell-based, human; settings: different concentrations of WIN 55,212-2, 24-48 hours
# Description: (§2) The number of viable cells was counted under light microscope using Trypan Blue staining. Compiled data from three experiments performed is shown.
# as §1
# PL-12 tumor cells [3] = assay: as above; assay type: cell-based, human; settings: different concentrations of WIN 55,212-2, 24-48 hours
# Description: as §2, §1
# PL-12 tumor cells [4] = assay: Cell death assay (PI staining, flow cytometry); assay type: cell-based, human; settings: 25-100 μM, 24-48 hours
# OSCCs [5] = assay: Microscopy of morphology and viability; assay type: cell-based, human
# Description: (§3) Chemical structure of WIN 55,212-2 (FIG. 7A). […] OSCCs and OSCSCs were treated with CDDP (50 μg/mL) and different concentrations of WIN 55,212-2 for 24 hours before the microscopic images were taken. Scale bar=50 μm (FIG. 7B).
# OSCSCs = assay: Microscopy of morphology and viability; assay type: cell-based, human; settings: WIN 55,212-2, even at the lowest concentrations, 24 h
# Description: as §3
# NK cells = assay: NK cell cytotoxicity in humanized BLT mice (4-hr Chromium release assay); assay type: in vivo; settings: hu-BLT mice, every 2 days for 3 weeks; WIN 55,212-2 2 mg/kg IP; IL-15 5 μg/mice IP; preliminary experiments
# Description: Humanized BLT mice (hu-BLT; human-bone marrow/liver/thymus) were fed with, AJ2 (5×10^9 CFU/mice, every 2 days, Oral administration), WIN 55,212-2 (2 mg/kg, every 2 days, IP) and/or IL-15 (5 μg/mice, every 2 days, IP). After 3 weeks of treatment, immune cells were collected from peripheral blood, bone marrow and spleen, and CD3+ T cells were isolated from splenocytes with EasySep™ Human CD3 positive selection kit II (StemCell Tech.). PBMCs (0.5×10^6 cells) obtained from the peripheral blood were treated with IL-2 (1000 U/ml) and/or anti-CD16 antibody (BioLegend) (3 μg/ml) for 3 days, after which the cells were counted and different numbers of E:T ratios were used for the assessment of cytotoxicity using 4-hr Chromium release assay (FIG. 1A and FIG. 1B). The percentage specific cytotoxicity was calculated using the following formula (% cytotoxicity=(Experimental cpm/spontaneous cpm)/(total cpm−spontaneous cpm)) and the lytic unit 30 (Lu30/10^6) was calculated by using the inverse of the number of effector cells needed to lyse 30% of tumor target cells×100. Killing per % NK cells was determined by dividing the total Lytic unit 30 by the percentage of NK cells in each sample (FIG. 1A and FIG. 1B). […]
# IFN-γ secretion = IFN-γ secretion of immune cells in humanized BLT mice (ELISA, ELISpot); assay type: in vivo; settings: hu-BLT mice
# Description: Humanized BLT mice (hu-BLT; human-bone marrow/liver/thymus) were fed with, AJ2 (5×10^9 CFU/mice, every 2 days, Oral administration), WIN 55,212-2 (2 mg/kg, every 2 days, IP) and/or IL-15 (5 μg/mice, every 2 days, IP). After 3 weeks of treatment, immune cells were collected from peripheral blood, bone marrow and spleen, and CD3+ T cells were isolated from splenocytes with EasySep™ Human CD3 positive selection kit II (StemCell Tech.). PBMCs (0.5×10^6 cells) obtained from the peripheral blood were treated with IL-2 (1000 U/ml) and/or anti-CD16 antibody (BioLegend) (3 μg/ml) for 3 days, after which the cells were counted and different numbers of E:T ratios were used for the assessment of cytotoxicity using 4-hr Chromium release assay (FIG. 1A and FIG. 1B). The percentage specific cytotoxicity was calculated using the following formula (% cytotoxicity=(Experimental cpm/spontaneous cpm)/(total cpm−spontaneous cpm)) and the lytic unit 30 (Lu30/10^6) was calculated by using the inverse of the number of effector cells needed to lyse 30% of tumor target cells×100. Killing per % NK cells was determined by dividing the total Lytic unit 30 by the percentage of NK cells in each sample (FIG. 1A and FIG. 1B). PBMCs (0.5×10^6 cells) obtained from the blood were treated with IL-2 (1000 U/ml) and/or anti-CD16 antibody (BioLegend) (3 μg/ml) for 24 hours, after which the supernatants were collected to measure IFN-g secretion using ELISA (BioLegend, San Diego) (FIG. 1C). ELISpot was used to determine the IFN-γ spots in PBMC (FIG. 1D), bone marrow (FIG. 1E), spleen (FIG. 1F) and CD3+ T cells (FIG. 1G).
# Humanized BLT mice (hu-BLT; human-bone marrow/liver/thymus) were fed with, AJ2 (5×10^9 CFU/mice, every 2 days, Oral administration), WIN 55,212-2 (2 mg/kg, every 2 days, IP) and/or IL-15 (5 μg/mice, every 2 days, IP). After 3 weeks of treatment, immune cells were collected from peripheral blood, bone marrow and spleen, and CD3+ T cells were isolated from splenocytes with EasySep™ Human CD3 positive selection kit II (StemCell Tech.). PBMCs (0.5×10^6 cells) obtained from the peripheral blood were treated with IL-2 (1000 U/ml) and/or anti-CD16 antibody (BioLegend) (3 μg/ml) for 3 days, after which the cells were counted and different numbers of E:T ratios were used for the assessment of cytotoxicity using 4-hr Chromium release assay (FIG. 6A and FIG. 6B). The percentage specific cytotoxicity was calculated using the following formula (% cytotoxicity=(Experimental cpm/spontaneous cpm)/(total cpm−spontaneous cpm)) and the lytic unit 30 (Lu30/10^6) was calculated by using the inverse of the number of effector cells needed to lyse 30% of tumor target cells×100. Killing per % NK cells was determined by dividing the total Lytic unit 30 by the percentage of NK cells in each sample (FIG. 6A and FIG. 6B). PBMCs (0.5×10^6 cells) obtained from the blood were treated with IL-2 (1000 U/ml) and/or anti-CD16 antibody (BioLegend) (3 μg/ml) for 24 hours, after which the supernatants were collected to measure IFN-g secretion using ELISA (BioLegend, San Diego) (FIG. 6C). ELISpot was used to determine the IFN-γ spots in PBMC (FIG. 6D), bone marrow (FIG. 6E), spleen (FIG. 6F) and CD3+ T cells (FIG. 6G).
# PL-12 tumor cells [6] = settings: 48 h, 25-100 μM
# MP2 tumor cells [7] = test system: MP2 tumor cells
# tumors = settings: cited from earlier work
# [8] = WIN 55,212-2 2 mg/kg IP every 2 days, 3 weeks
compound,measurement,setting,value
"CS(=O)(=O)O.Cc1c(C(=O)c2cccc3ccccc23)c2cccc3c2n1[C@H](CN1CCOCC1)CO3 [WIN 55,212-2, (R)-(+)-[2,3-Dihydro-5-methyl-3-(4-morpholinylmethyl)pyrrolo[1,2,3-de]-1,4-benzoxazin-6-yl]-1-naphthalenylmethanone mesylate]",decrease in cell numbers,OSCCs [1],10-25%
same,decreased numbers of viable cells,MP2 tumor cells [2],60-85%
same,decreased numbers of viable cells,PL-12 tumor cells [3],50-70%
same,percentages of dead cells (PI staining),PL-12 tumor cells [4],up to 20%
same,morphology and viability,"OSCCs [5]; 50 μM or higher concentrations of WIN 55,212-2, 24 h",some of the OSCCs still remained viable but others rounded up and detached and were not viable
same,morphology and viability,"OSCCs [5]; low concentrations of WIN 55,212-2, 24 h",remained viable
same,morphology and attachment,OSCSCs,became detached from the culture plates
same,cytotoxic function of NK cells in PBMC,NK cells,increased the cytotoxic function of NK cells
same,IFN-γ immune-spots (ELISpot) in PBMCs,IFN-γ secretion; [8],augmented
same,IFN-γ immune-spots (ELISpot) in bone marrow,IFN-γ secretion; [8],augmented
same,IFN-γ immune-spots (ELISpot) in purified CD3+ T cells,IFN-γ secretion; [8],augmented
same,IFN-γ immune-spots (ELISpot) in spleen,IFN-γ secretion; [8],augmented
same,"IFN-γ secretion (ELISA, PBMCs)","IFN-γ secretion; every 2 days for 3 weeks, WIN 55,212-2 2 mg/kg IP, IL-15 5 μg/mice IP",augmented IFN-γ secretion
same,cell surface expression of CD44,PL-12 tumor cells [6],Decreased cell surface expression
same,cell surface expression of CD54,PL-12 tumor cells [6],decreased the expression
same,cell surface expression of MHC class I,PL-12 tumor cells [6],increased on PL-12 tumor cells
same,cell surface expression of PD-L1,PL-12 tumor cells [6],increased in PL-12
same,cell surface expression of CD44,"MP2 tumor cells [7]; 48 h, 25-100 μM",Decreased cell surface expression
same,cell surface expression of CD54,"MP2 tumor cells [7]; 48 h, 25-100 μM",decreased the expression
same,cell surface expression of MHC class I,"MP2 tumor cells [7]; 48 h, 25-100 μM",decreased on MP2 tumor cells
same,cell surface expression of PD-L1,"MP2 tumor cells [7]; 48 h, 25-100 μM",decreased in MP2 tumor cells
same,"extent of decrease in all surface receptor expressions, MP2 compared with PL-12","MP2 tumor cells [7]; after WIN 55,212-2 treatments",significantly greater
same,migration and invasion of tumors,tumors; previously reported in several studies,inhibiting
same,"anti-tumor effect, mechanism",tumors; previously reported,inducing caspase-independent apoptosis

# From patent US20250332180A1, “CANNABINOIDS AND IL-15 ACTIVATE NK CELLS” (The Regents of the University of California, priority 2022, published 2025)
